{"source": "patent US20260144829A1", "about": "“SYNBIOTIC COMPOSITION, METABOLITES, AND METHOD OF PREVENTING AND TREATING OBESITY-RELATED DISEASE” (priority 2023, published 2026)", "note": "“Also recorded” adds a separate entry of the source. Residues, ends and D or L forms follow the SMILES beside them."}
{"tested_on": "HepG2 cells", "assay": "Lipid accumulation assay in uric acid-treated HepG2 cells", "assay_type": "cell-based", "conditions": "120 μg/mL uric acid, 24 hours", "protocol": "The lipid accumulation assay was done. Briefly, HepG2 cells at 70% confluence were incubated in RPMI 1640 medium containing 120 μg/mL uric acid for 24 hours, which was used to increase the lipid accumulation. After being washed by PBS buffer, the cells were maintained in new RPMI 1640 medium containing the metabolites (5.0, 1.0, 0.5, 0.1, and 0.05 μg/mL, the dried metabolites were redissolved in RPMI 164 medium) and 120 μg/mL uric acid for another 24 hours. Cells maintained in pure RPMI 1640 medium were employed as control.\nTo further identify bioactive metabolites produced by B. longum, we applied a fractionation approach followed by liquid chromatography-mass spectrometry (LC-MS) coupled with in vitro screening strategy (FIG. 2A). Briefly, the extraction method of B. longum BCRC12585 metabolites (that is, B. longum metabolites, or B. longum crude extract) is the same as in Example 2, and then twenty-five fractions derived from B. longum metabolites were prepared by pre-HPLC column, followed by individually testing the anti-lipid accumulation activity with HepG2 cells. […] To identify candidate metabolites from each active fraction, further analysis was performed by using liquid chromatography coupled with high resolution mass spectrometry (LC-MS/MS). […] Collectively, we integrated in vitro, in vivo, and metabolomics data to identify the bioactive metabolites which could be produced by B. longum."}
{"smiles": "Nc1ncnc2c1ncn2[C@@H]1O[C@H](CO)[C@@H](OP(=O)(O)O)[C@H]1O", "note": "[3-AMPP, 3-adenosine monophosphate]", "lipid accumulation in HepG2 cells": "significantly inhibited"}
{"smiles": "N[C@@H](CCC(=O)O)C(=O)O", "note": "[GA, glutamic acid]", "lipid accumulation in HepG2 cells": "significantly inhibited"}
{"smiles": "CC(C)[C@H](NC(=O)[C@@H]1CCC(=O)N1)C(=O)O", "note": "[Pyro-glu-val, pyro-glutamyl-valine] (HELM PEPTIDE1{[Glp].V}$$$$V2.0)", "lipid accumulation in HepG2 cells": "significantly inhibited"}
{"smiles": "O=C1CC[C@@H](C(=O)O)N1", "note": "[PyroGA, pyroglutamic acid]", "lipid accumulation in HepG2 cells": "significantly inhibited"}
{"smiles": "Nc1ncnc2c1ncn2[C@@H]1O[C@H](CO)[C@@H](O)[C@H]1O", "note": "[adenosine]", "lipid accumulation in HepG2 cells": "significantly inhibited"}
{"smiles": "CSCC[C@H](N)C(=O)O", "note": "[methionine]", "lipid accumulation in HepG2 cells": "significantly inhibited; also recorded: exhibited a lipid-lowering effect"}
{"smiles": "CC(C)[C@H](N)C(=O)O", "note": "[valine]", "lipid accumulation in HepG2 cells": "significantly inhibited"}
{"tested_on": "hepatic gene expression", "assay": "Hepatic RNA-sequencing of treated mice", "assay_type": "in vivo", "conditions": "liver", "protocol": "To obtain a more comprehensive understanding of MTA's potential as an antiobesity molecule, hepatic RNA-sequencing was performed on mice treated with both MTA and B. longum to determine its underlying mechanism for preventing obesity. […] Then, we conducted an in-depth analysis of the regulated genes involved in these biological functions. […] Likewise, overexpression of inhibin beta-A, which is encoded by the Inhba gene, can stimulate mitochondrial energy metabolism and increase energy expenditure.\nBile acids are regarded as important signaling molecules to regulate fatty acid, cholesterol, energy and glucose homeostasis; therefore, enhancing bile acid synthesis may be a strategy to avoid diet-induced obesity. Furthermore, the increased expression of Cyp7a1, which encodes the rate-limiting enzyme in the classic bile acid synthesis pathway, prevents high-fat diet-induced obesity, insulin resistance and atherosclerosis."}
{"smiles": "CSC[C@H]1O[C@@H](n2cnc3c(N)ncnc32)[C@H](O)[C@@H]1O", "note": "[MTA, 5′-s-methyl-5′-thioadenosine]", "expression of Cyp7a1": "up-regulated"}
